The test deals with recombinant human integrin αVβ6 (Homo sapiens (Human), UniProt P06756+P18564). Description: Solid phase integrin αVβ6 binding assay. Particulars: inhibition of recombinant TGFβ1 LAP binding to coated integrin, IC50 presented in four ranges, read-out: αvβ6 Inhibition IC50 (nM) - range. Here is the method:
(§1) Microplates were coated with recombinant human integrin αVβ6 (2 μg/mL) in PBS (100 μL/well 25° C., overnight). The coating solution was removed, washed with wash buffer (0.05% Tween 20; 0.5 mM MnCl2; in 1×TBS). The plate was blocked with 200 μL/well of Block Buffer (1% BSA; 5% sucrose; 0.5 mM MnCl2; in 1×TBS) at 37° C. for 2 h. Dilutions of testing compounds and recombinant TGFβ1 LAP (0.67 μg/mL) in binding buffer (0.05% BSA; 2.5% sucrose; 0.5 mM MnCl2; in 1×TBS) were added. The plate was incubated for 2 hours at 25° C., washed, and incubated for 1 hour with Biotin-Anti-hLAP. Bound antibody was detected by peroxidase-conjugated streptavidin. The IC50 values for testing compounds were calculated by a four-parameter logistic regression.
The compounds tested were compound samples prepared according to procedures described in the Synthetic Examples section, with the stereochemical purity as indicated in the Examples.
as §1, with “A third series of exemplary compounds was selected for testing in the solid phase integrin αVβ6 binding assay. The compounds tested were compound samples prepared according to procedures described in the Synthetic Examples section, with the stereochemical purity as indicated in the Examples. As in Example B1, microplates were” for “Microplates were”, “(0.67 g/mL)” for “(0.67 μg/mL)”
Chain of recombinant human integrin αVβ6 (P06756 31-992): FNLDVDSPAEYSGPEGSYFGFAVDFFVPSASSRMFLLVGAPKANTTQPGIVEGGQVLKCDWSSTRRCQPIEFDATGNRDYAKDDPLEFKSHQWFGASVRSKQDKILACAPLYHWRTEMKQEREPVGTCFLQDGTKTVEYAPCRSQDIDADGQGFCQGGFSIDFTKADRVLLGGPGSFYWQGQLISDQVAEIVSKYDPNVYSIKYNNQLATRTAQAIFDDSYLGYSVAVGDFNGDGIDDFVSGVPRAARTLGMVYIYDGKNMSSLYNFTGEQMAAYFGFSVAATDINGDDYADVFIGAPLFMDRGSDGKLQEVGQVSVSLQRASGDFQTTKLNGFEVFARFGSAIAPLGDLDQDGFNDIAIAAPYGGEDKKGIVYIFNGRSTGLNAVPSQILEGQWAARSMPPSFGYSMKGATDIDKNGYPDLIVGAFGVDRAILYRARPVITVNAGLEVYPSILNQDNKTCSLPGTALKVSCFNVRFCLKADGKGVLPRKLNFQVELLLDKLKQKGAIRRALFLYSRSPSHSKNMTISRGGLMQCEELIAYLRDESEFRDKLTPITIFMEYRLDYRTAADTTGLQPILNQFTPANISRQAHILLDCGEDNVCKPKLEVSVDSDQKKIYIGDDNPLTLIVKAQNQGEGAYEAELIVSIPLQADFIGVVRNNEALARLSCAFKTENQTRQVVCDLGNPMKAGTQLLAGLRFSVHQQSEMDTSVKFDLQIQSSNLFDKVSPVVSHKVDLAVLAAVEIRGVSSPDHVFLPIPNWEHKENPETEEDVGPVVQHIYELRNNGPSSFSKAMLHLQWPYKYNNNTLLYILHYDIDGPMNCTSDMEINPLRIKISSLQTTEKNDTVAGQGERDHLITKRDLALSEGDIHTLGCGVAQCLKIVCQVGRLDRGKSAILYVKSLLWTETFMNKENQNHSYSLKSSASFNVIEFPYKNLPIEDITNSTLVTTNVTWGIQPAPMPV
Chain of recombinant human integrin αVβ6 (P18564 22-707): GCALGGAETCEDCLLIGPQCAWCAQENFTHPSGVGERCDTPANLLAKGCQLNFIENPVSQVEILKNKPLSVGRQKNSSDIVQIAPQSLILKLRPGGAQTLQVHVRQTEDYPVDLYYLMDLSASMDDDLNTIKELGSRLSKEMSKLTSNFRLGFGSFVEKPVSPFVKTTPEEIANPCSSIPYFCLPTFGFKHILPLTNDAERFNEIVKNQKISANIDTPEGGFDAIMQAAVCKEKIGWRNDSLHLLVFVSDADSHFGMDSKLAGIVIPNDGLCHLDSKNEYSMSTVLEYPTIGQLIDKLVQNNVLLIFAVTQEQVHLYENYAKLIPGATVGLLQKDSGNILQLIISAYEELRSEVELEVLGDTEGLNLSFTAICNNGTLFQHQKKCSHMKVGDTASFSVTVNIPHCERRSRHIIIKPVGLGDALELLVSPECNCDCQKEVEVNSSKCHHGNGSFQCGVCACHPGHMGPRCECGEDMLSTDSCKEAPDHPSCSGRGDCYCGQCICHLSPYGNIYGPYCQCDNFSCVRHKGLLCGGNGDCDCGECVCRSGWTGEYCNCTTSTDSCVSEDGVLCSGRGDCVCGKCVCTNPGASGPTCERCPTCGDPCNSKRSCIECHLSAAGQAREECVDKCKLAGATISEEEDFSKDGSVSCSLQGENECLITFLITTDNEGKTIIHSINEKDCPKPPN
For `COCCN(CCCCc1ccc2c(n1)NCCC2)CC[C@H](Nc1ncnc2cnccc12)C(=O)O` [Compound 17, (S)-4-((2-methoxyethyl) (4-(5,6,7,8-tetrahydro-1,8-naphthyridin-2-yl)butyl)amino)-2-(pyrido[3,4-d]pyrimidin-4-ylamino) butanoic Acid], the concentration for half-maximal inhibition (IC50) (usually the midpoint of a concentration-inhibition curve) was less than 50 nM.

As for `COCCN(CCCCc1ccc2c(n1)NCCC2)CC[C@H](Nc1ncnc2ccccc12)C(=O)O` [Compound 5, (S)-4-((2-methoxyethyl) (4-(5,6,7,8-tetrahydro-1,8-naphthyridin-2-yl)butyl)amino)-2-(quinazolin-4-ylamino) butanoic Acid], the IC50 is less than 50 nM.

For the molecule `CO[C@@H](C)CN(CCCCc1ccc2c(n1)NCCC2)CC[C@H](Nc1ncnc2ccccc12)C(=O)O` [Compound 25, (S)-4-(((S)-2-methoxypropyl) (4-(5,6,7,8-tetrahydro-1,8-naphthyridin-2-yl)butyl)amino)-2-(quinazolin-4-ylamino) butanoic Acid], the IC50 was less than 50 nM.

For `O=C(O)[C@H](CCN(CCCCc1ccc2c(n1)NCCC2)CCOCC(F)(F)F)Nc1ncnc2cccnc12` [Compound 51, (S)-2-(pyrido[3,2-d]pyrimidin-4-ylamino)-4-((4-(5,6,7,8-tetrahydro-1,8-naphthyridin-2-yl)butyl) (2-(2,2,2-trifluoroethoxy)ethyl)amino) butanoic Acid], the IC50 is less than 50 nM.

On to `O=C(O)[C@H](CCN(CCCCc1ccc2c(n1)NCCC2)CC(F)F)Nc1ncc(F)cn1` [Compound 121, (S)-4-((2,2-difluoroethyl) (4-(5,6,7,8-tetrahydro-1,8-naphthyridin-2-yl)butyl)amino)-2-((5-fluoropyrimidin-2-yl)amino) butanoic Acid], for which the 50% inhibitory concentration (IC50) is greater than 1000 nM.

For the molecule `O=C(O)[C@H](CCN(CCCCc1ccc2c(n1)NCCC2)CC(F)F)Nc1ncc(C(F)(F)F)cn1` [Compound 95, (S)-4-((2,2-difluoroethyl) (4-(5,6,7,8-tetrahydro-1,8-naphthyridin-2-yl)butyl)amino)-2-((5-(trifluoromethyl)pyrimidin-2-yl)amino) butanoic Acid], the half-maximal inhibitory concentration (IC50) was greater than 1000 nM.

As for `COC[C@@H](F)CN(CCCCc1ccc2c(n1)NCCC2)CC[C@H](Nc1cc(-c2ccccc2)ncn1)C(=O)O` [Compound 128, (S)-4-(((S)-2-fluoro-3-methoxypropyl) (4-(5,6,7,8-tetrahydro-1,8-naphthyridin-2-yl)butyl)amino)-2-((6-phenylpyrimidin-4-yl)amino) butanoic Acid], the half-inhibitory concentration (IC50) is greater than 1000 nM.

`COC[C@@H](F)CN(CCCCc1ccc2c(n1)NCCC2)CC[C@H](Nc1nc(C)nc2ccccc12)C(=O)O` [Compound 46, (S)-4-(((S)-2-fluoro-3-methoxypropyl) (4-(5,6,7,8-tetrahydro-1,8-naphthyridin-2-yl)butyl)amino)-2-((2-methylquinazolin-4-yl)amino) butanoic Acid]: the IC50 was less than 50 nM.

In the case of `O=C(O)[C@H](CCN(CCCCc1ccc2c(n1)NCCC2)C1CC1)Nc1ccnc(C(F)(F)F)n1` [Compound 115, (S)-4-(cyclopropyl(4-(5,6,7,8-tetrahydro-1,8-naphthyridin-2-yl)butyl)amino)-2-((2-(trifluoromethyl)pyrimidin-4-yl)amino) butanoic Acid], the IC50 was 50 to 250 nM.

In the case of `CO[C@H](C)CN(CCCCc1ccc2c(n1)NCCC2)CC[C@H](Nc1ncnc2c1cnn2C)C(=O)O` [Compound 74, (S)-4-(((R)-2-methoxypropyl) (4-(5,6,7,8-tetrahydro-1,8-naphthyridin-2-yl)butyl)amino)-2-((1-methyl-1H-pyrazolo[3,4-d]pyrimidin-4-yl)amino) butanoic Acid], the 50% inhibitory concentration (IC50) was less than 50 nM.

For the molecule `COC[C@@H](F)CN(CCCCc1ccc2c(n1)NCCC2)CC[C@H](Nc1ncnc2ccccc12)C(=O)O` [Compound 31, (S)-4-(((S)-2-fluoro-3-methoxypropyl) (4-(5,6,7,8-tetrahydro-1,8-naphthyridin-2-yl)butyl)amino)-2-(quinazolin-4-ylamino) butanoic Acid], the 50% inhibitory concentration (IC50) is less than 50 nM.

For `COCCN(CCCCc1ccc2c(n1)NCCC2)CC[C@H](Nc1cc(-n2cccn2)ncn1)C(=O)O` [Compound 44, (S)-2-((6-(1H-pyrazol-1-yl)pyrimidin-4-yl)amino)-4-((2-methoxyethyl) (4-(5,6,7,8-tetrahydro-1,8-naphthyridin-2-yl)butyl)amino) butanoic Acid], the IC50 was less than 50 nM.

Consider `CS(=O)(=O)CCN(CCCCc1ccc2c(n1)NCCC2)CC[C@H](Nc1ncnc2[nH]ncc12)C(=O)O` [Compound 125, (S)-2-((1H-pyrazolo[3,4-d]pyrimidin-4-yl)amino)-4-((2-(methylsulfonyl)ethyl) (4-(5,6,7,8-tetrahydro-1,8-naphthyridin-2-yl)butyl)amino) butanoic Acid], for which the IC50 was in the range of 50 to 250 nM.

As for `COCCN(CCCCc1ccc2c(n1)NCCC2)CC[C@H](Nc1ncnc2cc(C(F)(F)F)ccc12)C(=O)O` [Compound 13, (S)-4-((2-methoxyethyl) (4-(5,6,7,8-tetrahydro-1,8-naphthyridin-2-yl)butyl)amino)-2-((7-(trifluoromethyl)quinazolin-4-yl)amino) butanoic Acid], the 50% inhibitory concentration (IC50) is 50 to 250 nM.

For the molecule `O=C(O)[C@H](CCN(CCCCc1ccc2c(n1)NCCC2)CC(CO)CO)Nc1ncnc2ccccc12` [Compound 130, (S)-4-((3-hydroxy-2-(hydroxymethyl)propyl) (4-(5,6,7,8-tetrahydro-1,8-naphthyridin-2-yl)butyl)amino)-2-(quinazolin-4-ylamino) butanoic Acid], the concentration for half-maximal inhibition (IC50) is less than 50 nM.

`Cc1cc(N[C@@H](CCN(CCCCc2ccc3c(n2)NCCC3)CC(F)F)C(=O)O)nc(-c2ccncc2)n1` [Compound 122, (S)-4-((2,2-difluoroethyl) (4-(5,6,7,8-tetrahydro-1,8-naphthyridin-2-yl)butyl)amino)-2-((6-methyl-2-(pyridin-4-yl)pyrimidin-4-yl)amino) butanoic Acid]: the 50% inhibitory concentration (IC50) lay in the range of 250 to 1000 nM.

On to `CO[C@H](C)CN(CCCCc1ccc2c(n1)NCCC2)CC[C@H](Nc1ncc(Br)cn1)C(=O)O` [Compound 70, (S)-2-((5-bromopyrimidin-2-yl)amino)-4-(((R)-2-methoxypropyl) (4-(5,6,7,8-tetrahydro-1,8-naphthyridin-2-yl)butyl)amino) butanoic Acid], for which the IC50 was less than 50 nM.

On to `O=C(O)[C@H](CCN(CCCCc1ccc2c(n1)NCCC2)CCOc1ccccc1)Nc1cc(-c2ccccc2)ncn1` [Compound 93, (S)-4-((2-phenoxyethyl) (4-(5,6,7,8-tetrahydro-1,8-naphthyridin-2-yl)butyl)amino)-2-((6-phenylpyrimidin-4-yl)amino) butanoic Acid], for which the concentration for half-maximal inhibition (IC50) is less than 50 nM.

Consider `O=C(O)[C@H](CCN(CCCCc1ccc2c(n1)NCCC2)CCOC(F)F)Nc1ncnc2ccccc12` [Compound 35, (S)-4-((2-(difluoromethoxy)ethyl) (4-(5,6,7,8-tetrahydro-1,8-naphthyridin-2-yl)butyl)amino)-2-(quinazolin-4-ylamino) butanoic Acid], for which the IC50 was less than 50 nM.

For `CS(=O)(=O)CCN(CCCCc1ccc2c(n1)NCCC2)CC[C@H](Nc1ccnc(C(F)(F)F)n1)C(=O)O` [Compound 104, (S)-4-((2-(methylsulfonyl)ethyl) (4-(5,6,7,8-tetrahydro-1,8-naphthyridin-2-yl)butyl)amino)-2-((2-(trifluoromethyl)pyrimidin-4-yl)amino) butanoic Acid], the 50% inhibitory concentration (IC50) was greater than 1000 nM.

Take `O=C(O)[C@H](CCN(CCCCc1ccc2c(n1)NCCC2)CC(F)F)Nc1ncc(C2CC2)cn1` [Compound 146, (S)-2-((5-cyclopropylpyrimidin-2-yl)amino)-4-((2,2-difluoroethyl) (4-(5,6,7,8-tetrahydro-1,8-naphthyridin-2-yl)butyl)amino) butanoic Acid]: the concentration for half-maximal inhibition (IC50) is greater than 1000 nM.

As for `O=C(O)[C@H](CCN(CCCCc1ccc2c(n1)NCCC2)CCOc1ccccc1)Nc1cc(-n2cccn2)ncn1` [Compound 91, (S)-2-((6-(1H-pyrazol-1-yl)pyrimidin-4-yl)amino)-4-((2-phenoxyethyl) (4-(5,6,7,8-tetrahydro-1,8-naphthyridin-2-yl)butyl)amino) butanoic Acid], the IC50 was less than 50 nM.

For `O=C(O)[C@H](CCN(CCCCc1ccc2c(n1)NCCC2)C1CC1)Nc1cc(C(F)F)ncn1` [Compound 1, (S)-4-(cyclopropyl(4-(5,6,7,8-tetrahydro-1,8-naphthyridin-2-yl)butyl)amino)-2-((6-(difluoromethyl)pyrimidin-4-yl)amino) butanoic Acid], the IC50 was in the range of 250 to 1000 nM.

Values taken from patent publication US10793564B2, “Amino acid compounds and methods of use” (Pliant Therapeutics, Inc., priority 2018, dated 2020).
